#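 Where inhibition never reached the appropriate level, the endpoint shown equals the highest concentration tested. Otherwise, values were interpolated linearly from a five-concentration, 48-hour dose response in 96-well plates. At the GI50, growth is halved.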 Calls of active or inactive are those of the source. No stated cut-off is given here; in the data, active = GI50 up to about 1.1 µM and inactive = higher.
# How the values were obtained:
# Assay in all cases: growth of human tumour cells (NCI), 48 h
# ACHN = tested on: ACHN
# CAKI-1 = tested on: CAKI-1
# COLO 205 = tested on: COLO 205
# HCC 2998 = tested on: HCC 2998
# HT-29 = tested on: HT-29
# Hs-578T = tested on: Hs-578T
# KM12 = tested on: KM12
# M14 = tested on: M14
# MCF7 = tested on: MCF7
# Malme-3M = tested on: Malme-3M
# NCI-H226 = tested on: NCI-H226
# NCI-H522 = tested on: NCI-H522
# OVCAR-5 = tested on: OVCAR-5
# SN12C = tested on: SN12C
# SNB-75 = tested on: SNB-75
# SR = tested on: SR
# SW-620 = tested on: SW-620
# T47D = tested on: T47D
# U-251 = tested on: U-251
# SK-MEL-2 = tested on: SK-MEL-2
Compound,GI50 (ACHN),GI50 (CAKI-1),GI50 (COLO 205),GI50 (HCC 2998),GI50 (HT-29),GI50 (Hs-578T),GI50 (KM12),GI50 (M14),GI50 (MCF7),GI50 (Malme-3M),GI50 (NCI-H226),GI50 (NCI-H522),GI50 (OVCAR-5),GI50 (SN12C),GI50 (SNB-75),GI50 (SR),GI50 (SW-620),GI50 (T47D),GI50 (U-251),GI50 (SK-MEL-2)
OCCN(C1=NCCN1)/[N+](=C\c1ccccn1)[CH-]c1ccccn1,> 100 µM (inactive),> 100 µM (inactive),> 100 µM (inactive),> 100 µM (inactive),> 100 µM (inactive),> 100 µM (inactive),> 100 µM (inactive),> 100 µM (inactive),> 100 µM (inactive),> 100 µM (inactive),> 100 µM (inactive),> 100 µM (inactive),> 100 µM (inactive),> 100 µM (inactive),> 100 µM (inactive),8.87 µM (inactive),> 100 µM (inactive),> 100 µM (inactive),> 100 µM (inactive),–
CCOC(=O)NC(Nc1ccc(F)cc1F)(C(F)(F)F)C(F)(F)F,> 100 µM (inactive),> 100 µM (inactive),> 100 µM (inactive),> 100 µM (inactive),> 100 µM (inactive),> 100 µM (inactive),> 100 µM (inactive),> 100 µM (inactive),> 100 µM (inactive),> 100 µM (inactive),> 100 µM (inactive),> 100 µM (inactive),> 100 µM (inactive),> 100 µM (inactive),> 100 µM (inactive),> 100 µM (inactive),> 100 µM (inactive),> 100 µM (inactive),> 100 µM (inactive),> 100 µM (inactive)
O=C(NC1=C(Cl)C(=O)c2ccccc2C1=O)C(=O)C(C(=O)c1ccc2ccccc2c1)C1OC(=O)c2ccccc21 (stereo unspecified),7.29 µM (inactive),6.34 µM (inactive),7.4 µM (inactive),9.55 µM (inactive),4.07 µM (inactive),6.25 µM (inactive),3.09 µM (inactive),2.18 µM (inactive),2.74 µM (inactive),1.7 µM (inactive),0.986 µM (active),3.94 µM (inactive),11.8 µM (inactive),4.36 µM (inactive),2.87 µM (inactive),3.31 µM (inactive),5.13 µM (inactive),5.35 µM (inactive),4.38 µM (inactive),4.94 µM (inactive)
CC(=O)Nc1cc(C(=O)Nc2cc(C(=O)N3CC(CCl)c4c3cc(N)c3ccccc43)nn2C)nn1C (stereo unspecified),< 0.0148 µM (active),< 0.0393 µM (active),0.112 µM (active),0.115 µM (active),0.216 µM (active),0.176 µM (active),0.188 µM (active),0.286 µM (active),0.168 µM (active),0.115 µM (active),< 0.0232 µM (active),< 0.01 µM (active),0.31 µM (active),< 0.01 µM (active),0.0215 µM (active),< 0.01 µM (active),< 0.0383 µM (active),< 0.01 µM (active),0.0194 µM (active),0.0731 µM (active)
COc1ccc(/C=C2\CCS(=O)(=O)c3ccccc3C2=O)cc1OC,27.5 µM (inactive),58.6 µM (inactive),48.8 µM (inactive),14.9 µM (inactive),36.7 µM (inactive),20.7 µM (inactive),28.4 µM (inactive),38.9 µM (inactive),12.2 µM (inactive),–,29.1 µM (inactive),–,68.1 µM (inactive),28.2 µM (inactive),24.9 µM (inactive),43.5 µM (inactive),38 µM (inactive),32.3 µM (inactive),31.9 µM (inactive),35.4 µM (inactive)
COc1ccc2cc(CNCCCCCCCCNCc3ccc4cc(OC)ccc4c3)ccc2c1,5.94 µM (inactive),6.67 µM (inactive),2.48 µM (inactive),1.85 µM (inactive),2 µM (inactive),8.77 µM (inactive),3.92 µM (inactive),1.86 µM (inactive),4.27 µM (inactive),6.85 µM (inactive),14 µM (inactive),4.37 µM (inactive),6.9 µM (inactive),–,3.41 µM (inactive),1.12 µM (active),1.97 µM (inactive),21.2 µM (inactive),3.66 µM (inactive),4.71 µM (inactive)
COc1ccc(N[S+]([O-])c2ccccc2OC)cc1 (stereo unspecified),20.4 µM (inactive),25.8 µM (inactive),24.4 µM (inactive),> 10 µM (inactive),18.1 µM (inactive),21.7 µM (inactive),4.98 µM (inactive),33.3 µM (inactive),20.2 µM (inactive),19.6 µM (inactive),13.4 µM (inactive),5.26 µM (inactive),46.5 µM (inactive),> 100 µM (inactive),–,11.9 µM (inactive),22.7 µM (inactive),4.37 µM (inactive),12.5 µM (inactive),11.8 µM (inactive)
Cc1cccc(N2C(=O)C3ON(C(C(N)=O)c4ccccc4)C(c4c5ccccc5c(Cl)c5ccccc45)C3C2=O)c1C (stereo unspecified),9.16 µM (inactive),9.06 µM (inactive),9.42 µM (inactive),–,7.82 µM (inactive),16.6 µM (inactive),1.85 µM (inactive),7.93 µM (inactive),7.64 µM (inactive),11.4 µM (inactive),7.13 µM (inactive),10.5 µM (inactive),10.3 µM (inactive),8.07 µM (inactive),8.05 µM (inactive),1.69 µM (inactive),3.53 µM (inactive),9.57 µM (inactive),8.02 µM (inactive),9.23 µM (inactive)
Cc1ccc(C2(c3ccc(C)cc3)SC(=C(C#N)C#N)c3ccccc32)cc1,> 100 µM (inactive),–,–,89.7 µM (inactive),55.6 µM (inactive),> 100 µM (inactive),23 µM (inactive),> 100 µM (inactive),81.1 µM (inactive),87.9 µM (inactive),> 100 µM (inactive),–,> 100 µM (inactive),> 100 µM (inactive),–,27.6 µM (inactive),6.75 µM (inactive),> 100 µM (inactive),18.1 µM (inactive),2.9 µM (inactive)
O=c1[nH]nc(Cc2ccccc2)n1/N=C/c1c(O)ccc2ccccc12,22 µM (inactive),28.2 µM (inactive),47.4 µM (inactive),33.4 µM (inactive),28.4 µM (inactive),19.4 µM (inactive),19.7 µM (inactive),–,37.9 µM (inactive),20.9 µM (inactive),24.5 µM (inactive),16.6 µM (inactive),–,41.1 µM (inactive),17.7 µM (inactive),21.3 µM (inactive),43.5 µM (inactive),20.2 µM (inactive),18.2 µM (inactive),38.1 µM (inactive)
CC(=O)c1ccc(Nc2c3c(nc4ccccc24)CCCC3)cc1,38.3 µM (inactive),16.4 µM (inactive),11.7 µM (inactive),42.1 µM (inactive),10.2 µM (inactive),27.9 µM (inactive),7.29 µM (inactive),12.6 µM (inactive),18.7 µM (inactive),–,14 µM (inactive),3.85 µM (inactive),13.5 µM (inactive),22.9 µM (inactive),4.12 µM (inactive),2.47 µM (inactive),16.9 µM (inactive),10.1 µM (inactive),19.1 µM (inactive),24 µM (inactive)
N#Cc1cc2c(cc1Cl)Sc1nccn1S2(=O)=O,2.08 µM (inactive),1.4 µM (inactive),12.4 µM (inactive),–,0.977 µM (active),2.68 µM (inactive),5.79 µM (inactive),0.619 µM (active),3.8 µM (inactive),6.79 µM (inactive),5.89 µM (inactive),1.15 µM (inactive),14.4 µM (inactive),7.57 µM (inactive),7.53 µM (inactive),1 µM (active),3.54 µM (inactive),1.99 µM (inactive),1.6 µM (inactive),3.74 µM (inactive)
COCN1C(=O)[C@@H]2C[C@@H](O)CN2C(=O)c2ccccc21,> 100 µM (inactive),> 100 µM (inactive),> 100 µM (inactive),> 100 µM (inactive),> 100 µM (inactive),> 100 µM (inactive),> 100 µM (inactive),> 100 µM (inactive),> 100 µM (inactive),> 100 µM (inactive),–,> 100 µM (inactive),> 100 µM (inactive),> 100 µM (inactive),> 100 µM (inactive),> 100 µM (inactive),> 100 µM (inactive),> 100 µM (inactive),> 100 µM (inactive),> 100 µM (inactive)
CC1=COC(C)(C=C(C#N)C#N)CC1 (stereo unspecified),> 100 µM (inactive),–,> 100 µM (inactive),> 100 µM (inactive),> 100 µM (inactive),15.4 µM (inactive),34.8 µM (inactive),78.5 µM (inactive),36.6 µM (inactive),> 100 µM (inactive),> 100 µM (inactive),–,> 100 µM (inactive),49.9 µM (inactive),65.8 µM (inactive),31 µM (inactive),50.7 µM (inactive),98.4 µM (inactive),> 100 µM (inactive),–
CCOC(C[Se]CC(OCC)OCC)OCC,> 100 µM (inactive),59.4 µM (inactive),> 100 µM (inactive),> 100 µM (inactive),64.9 µM (inactive),14.9 µM (inactive),53.2 µM (inactive),52.8 µM (inactive),48.3 µM (inactive),61.5 µM (inactive),21.5 µM (inactive),> 100 µM (inactive),96.6 µM (inactive),–,13.2 µM (inactive),> 100 µM (inactive),85.3 µM (inactive),> 100 µM (inactive),14.6 µM (inactive),48.5 µM (inactive)
